From patent US8399442B2, “Pharmaceutical compounds” (priority 2005, dated 2013)
Structures can show the parent of a compound that is named as a salt. Values belong to the compound of their own block, whether it stands above or below them.

What was measured:
[1] = Physicochemical parameters (pKa, logP, logD)
[2] = physchem; details: water
[3] = physchem; details: water, thermodynamic from solid
[4] = target: T1, Chk2 (Homo sapiens, UniProt O96017); assay: Kinase inhibitory activity assay (Upstate, 33P-ATP); assay type: biochemical; details: read-out: Inhibition of kinases in vitro, % at 30 nM
T1 construct: purchased Upstate Discovery Ltd
T1 sequence (O96017 whole entry): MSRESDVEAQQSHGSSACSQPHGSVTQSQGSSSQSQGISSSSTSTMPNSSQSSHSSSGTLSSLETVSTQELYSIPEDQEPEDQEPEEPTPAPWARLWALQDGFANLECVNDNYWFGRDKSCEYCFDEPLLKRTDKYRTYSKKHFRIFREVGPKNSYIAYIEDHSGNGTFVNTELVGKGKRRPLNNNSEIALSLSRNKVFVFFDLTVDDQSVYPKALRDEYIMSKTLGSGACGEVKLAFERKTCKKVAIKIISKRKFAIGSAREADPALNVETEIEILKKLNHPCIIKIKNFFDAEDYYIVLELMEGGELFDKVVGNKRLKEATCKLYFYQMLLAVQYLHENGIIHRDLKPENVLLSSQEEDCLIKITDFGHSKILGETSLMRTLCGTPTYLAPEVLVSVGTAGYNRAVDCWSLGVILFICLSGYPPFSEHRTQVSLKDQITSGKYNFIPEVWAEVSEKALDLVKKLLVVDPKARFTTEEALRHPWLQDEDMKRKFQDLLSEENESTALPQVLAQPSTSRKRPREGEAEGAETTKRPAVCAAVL
Procedure: Where inhibition was high an IC50 was determined.

[5] = system: primary human mammary epithelial cells; details: 24 h

- logP [1]: 3.24
- logPion [1]: 0.36
- logD ([1]; pH=6): 2.27
- logD ([1]; pH=6.5): 2.68
- logD ([1]; pH=7.4): 3.11
Compound: 1-(2,6-difluorophenyl)-N-[3-(5-morpholin-4-ylmethyl-1H-benzimidazol-2-yl)-1H-pyrazol-4-yl]-urea

- melting point: 190 °C
Compound: O=C(Nc1c[nH]nc1-c1nc2cc(CN3CCOCC3)ccc2[nH]1)Nc1c(F)cccc1F (as salt: hydrochloride) [1-(2,6-difluorophenyl)-N-[3-(5-morpholin-4-ylmethyl-1H-benzimidazol-2-yl)-1H-pyrazol-4-yl]-urea]

Compound: O=C(Nc1c[nH]nc1-c1nc2cc(CN3CCOCC3)ccc2[nH]1)NC1CC1 [Acetate]
- solubility ([2]; thermodynamic from solid): > 25 mg/mL
- solubility [3]: > 100 mg/mL

Compound: O=C(Nc1c[nH]nc1-c1nc2cc(CN3CCOCC3)ccc2[nH]1)NC1CC1 [D-Gluconate]
- solubility ([2]; thermodynamic from solid): > 25 mg/mL

Compound: O=C(Nc1c[nH]nc1-c1nc2cc(CN3CCOCC3)ccc2[nH]1)NC1CC1 [D-Glucuronate]
- solubility [2]: > 25 mg/mL
- solubility at 20 h ([2]; thermodynamic from solid): > 50 mg/mL
- solubility [3]: > 100 mg/mL

Compound: O=C(Nc1c[nH]nc1-c1nc2cc(CN3CCOCC3)ccc2[nH]1)NC1CC1 [compound of formula (I^0)]
- inhibition at 0.03 µM [4]: 41%
- effect of treatment on normal cells cf. tumor cells [5]: fewer become multinucleated or die after treatment, but instead undergo reversible G2/M arrest
